These results are taken from US20200069775A1, “BRAIN OSTEOCALCIN RECEPTOR AND COGNITIVE DISORDERS” (The Trustees of Columbia University in the City of New York, priority 2017, published 2020).

This assay has as its system Tph2, Th, Gad1 expression in brainstem and midbrain explants. As to the kind of experiment: Gene expression (qPCR) in brainstem and midbrain explants. In kind it is cell-based, mouse. As to the method: For gene expression studies, RNA was isolated from primary neurons or tissue using TRIZOL® (Invitrogen). cDNA synthesis was performed following a standard protocol from Invitrogen and qPCR analyses were done using specific quantitative PCR primers from SABiosciences (http://www.sabiosciences.com/RT2PCR.php).
Brains were dissected and incubated for 30 minutes in ice cold oxygenated artificial cerebrospinal fluid (ACSF). Brains were then sliced at 500 μm at the midbrain, −1.55 to −2.35 mm from the bregma, and at the level of the brainstem, from −4.04 to −4.48 mm and from −4.60 to −5.20 mm from the bregma, to include the median and dorsal raphe, respectively. These slices were incubated in ACSF for 1 h, constantly oxygenated (95% O2 and 5% CO2) […], after which they were treated with either osteocalcin (10 ng/ml) or PBS for four hours. Expression of Tph2, TH, GAD 1, GAD2, and Ddc was measured by qPCR.
To determine if osteocalcin acts directly on neurons to modulate neurotransmitter synthesis, several types of assays were performed. First, brainstem and midbrain explants from WT and Gprc6a^−/− mice were generated. Brains were sliced (500 μm) at the level of the median and dorsal raphe of the brainstem (from −4.04 to −4.48 mm and from −4.60 to −5.20 mm, respectively), so that they would be enriched in serotonin-producing neurons, as well as at the level of substantia nigrae and ventral tegmental areas (VTA) of the midbrain (from −1.55 to −2.35 mm and from −2.55 to −3.25 mm, respectively). Enrichment in serotoninergic and catecholaminergic neurons in these explants was verified by their high Tph2 and Th expression. While leptin, used here as a positive control, reduced, as it should, Tph2 expression in WT or Gprc6a^−/− brainstem explants, osteocalcin ([…]) increased expression of this gene 2.5 fold in both WT and Gprc6a^−/− explants. (FIG. 3D). […] Third, to further confirm that osteocalcin signals in neurons of the hindbrain, calcium flux in MPHN treated with undercarboxylated or carboxylated osteocalcin (FIG. 3F) was measured.
On the technique in general: Quantitative PCR measures a nucleic acid by following its amplification.

As to “osteocalcin: Recombinant osteocalcin bacterially produced, cleaved from the GST subunit; completely undercarboxylated at all three sites; full-length mouse osteocalcin (YLGASVPSPDPLEPTREQCELNPACDELSDQYGLKTAYKRIYGITI)”, for the setting “WT and Gprc6a−/− hindbrain explants”, the Gad1 expression entry is reported as “decreased Gad1 expression”. The Th expression result (midbrain explants) is recorded as “increased Th expression”. In addition, where the note is “osteocalcin 3 ng/ml, WT and Gprc6a−/− brainstem explants”, the “increase of Tph2 expression” value is given as 2.5 fold.
